What was measured:
[1] = system: gelatinolytic urinary MMPs; conditions: 20 mM EDTA; urine of CCI rats, day 0, 1 and 28
Experimental: The urine samples collected at day 0 (prior to injury) and days 1 and 28 post-CCI (n=4-6/group) were equilibrated in MMP buffer, pH 7.5 and then the protein concentrations were determined using the Bradford assay and made even by sample dilution in MMP buffer, pH 7.5. Dialyzed urine samples were analyzed by gelatin zymography. […] The urine samples collected at day 0 (CTR) and 28 post-CCI (CCI) (n=4-5/group) were equilibrated in MMP buffer, pH 7.5, and then the protein concentrations were determined using the Bradford assay. Dialyzed urine samples were co-incubated with the fluorescent Mca-PLGL-Dpa-AR-NH2 MMP substrate in the presence and the absence of GM6001, a broad-spectrum hydroxamate MMP inhibitor.
The dialyzed rat urine samples equilibrated in MMP buffer, pH 7.5, the crude nerve extracts and the MMP-9 samples isolated from sciatic nerve were analyzed by gelatin zymography in a 10% acrylamide-0.1% gelatin gel. […] Where indicated, gels were incubated in 20 mM EDTA to inactivate MMP activity.

female rats = conditions: single intra-neural injection into intact sciatic nerve, Liu et al. 2012; cited from earlier work
[2] = biological target: T1, α2δ1 subunit of the voltage-gated Ca^2+ channel (Homo sapiens, UniProt P54289); conditions: animal studies; Ohashi et al. 2008; cited from earlier work
T1 construct: PD-217,014 produces visceral analgesic effects in animal studies
T1 sequence (P54289 25-1103): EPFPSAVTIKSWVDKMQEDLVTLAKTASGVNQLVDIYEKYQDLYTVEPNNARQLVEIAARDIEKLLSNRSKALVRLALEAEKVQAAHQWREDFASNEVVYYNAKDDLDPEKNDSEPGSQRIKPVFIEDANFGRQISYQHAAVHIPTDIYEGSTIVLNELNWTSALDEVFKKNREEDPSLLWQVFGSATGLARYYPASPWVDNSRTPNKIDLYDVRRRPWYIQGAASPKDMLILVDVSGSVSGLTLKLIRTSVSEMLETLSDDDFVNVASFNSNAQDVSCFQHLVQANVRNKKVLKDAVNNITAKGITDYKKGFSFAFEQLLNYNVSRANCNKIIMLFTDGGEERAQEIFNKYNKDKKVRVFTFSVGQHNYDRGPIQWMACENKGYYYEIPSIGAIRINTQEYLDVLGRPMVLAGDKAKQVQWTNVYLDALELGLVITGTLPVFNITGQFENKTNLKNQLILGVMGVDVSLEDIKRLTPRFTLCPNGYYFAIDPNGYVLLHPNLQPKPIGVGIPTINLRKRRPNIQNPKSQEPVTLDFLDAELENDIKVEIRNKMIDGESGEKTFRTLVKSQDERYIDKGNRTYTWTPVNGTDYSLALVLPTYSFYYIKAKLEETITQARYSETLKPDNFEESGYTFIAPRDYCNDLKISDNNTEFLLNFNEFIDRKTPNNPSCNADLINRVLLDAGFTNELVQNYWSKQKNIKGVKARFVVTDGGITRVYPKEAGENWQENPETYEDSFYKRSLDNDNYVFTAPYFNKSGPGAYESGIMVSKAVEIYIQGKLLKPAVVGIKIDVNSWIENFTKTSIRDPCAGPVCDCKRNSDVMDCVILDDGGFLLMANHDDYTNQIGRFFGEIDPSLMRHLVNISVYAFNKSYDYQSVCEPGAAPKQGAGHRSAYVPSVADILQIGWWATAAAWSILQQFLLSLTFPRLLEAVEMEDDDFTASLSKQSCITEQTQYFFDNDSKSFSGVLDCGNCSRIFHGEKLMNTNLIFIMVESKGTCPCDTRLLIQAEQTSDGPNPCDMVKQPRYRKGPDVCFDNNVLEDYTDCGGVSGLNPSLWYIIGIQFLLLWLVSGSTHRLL
T1 sequence (P54289 957-1103): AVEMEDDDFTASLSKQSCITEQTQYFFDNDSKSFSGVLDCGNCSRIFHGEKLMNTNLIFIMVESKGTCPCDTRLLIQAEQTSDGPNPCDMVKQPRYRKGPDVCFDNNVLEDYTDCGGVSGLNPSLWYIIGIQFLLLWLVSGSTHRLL

With O=C(O)CN(CCN(CC(=O)O)CC(=O)O)CC(=O)O [EDTA] the “effect on MMP-related gelatinolytic bands” value [1] was “repressed all of the MMP-related gelatinolytic bands”.
For “ENPVVHFFKNIVTPRTPPPSQ (synthetic wild-type (MBP84-104-WT)) [synthetic algesic myelin basic protein-derived peptide, region 84-104 of human MBP]”, the “mechanical allodynia after injection” value (female rats) is listed as “causes a robust and long-lasting mechanical allodynia”.
For NC[C@@]1(CC(=O)O)C[C@H]2CC[C@H]2C1 [PD-217,014], the “visceral analgesic effects, potency and efficacy compared with gabapentin” value [2] is given as “higher potency and efficacy than gabapentin”.

Reference: US20200225244A1, “COMPOSITIONS AND METHODS FOR ASSESSING PAINFUL DEMYELINATING AND NONDEMYELINATING DISEASES” (Sanford Burnham Prebys Medical Discovery Institute, priority 2017, published 2020)
